Assay results as given in ChEMBL document CHEMBL1140871, “Diaryl-dithiolanes and -isothiazoles: COX-1/COX-2 and 5-LOX-inhibitory, *OH scavenging and anti-adhesive activities” (Bioorg Med Chem, 2009).

Tests used:
[1] = molecular target: T1, Prostaglandin G/H synthase 2 (Homo sapiens, UniProt P35354); assay: Inhibition of COX2 in LPS-stimulated human blood
T1 sequence (P35354 whole entry): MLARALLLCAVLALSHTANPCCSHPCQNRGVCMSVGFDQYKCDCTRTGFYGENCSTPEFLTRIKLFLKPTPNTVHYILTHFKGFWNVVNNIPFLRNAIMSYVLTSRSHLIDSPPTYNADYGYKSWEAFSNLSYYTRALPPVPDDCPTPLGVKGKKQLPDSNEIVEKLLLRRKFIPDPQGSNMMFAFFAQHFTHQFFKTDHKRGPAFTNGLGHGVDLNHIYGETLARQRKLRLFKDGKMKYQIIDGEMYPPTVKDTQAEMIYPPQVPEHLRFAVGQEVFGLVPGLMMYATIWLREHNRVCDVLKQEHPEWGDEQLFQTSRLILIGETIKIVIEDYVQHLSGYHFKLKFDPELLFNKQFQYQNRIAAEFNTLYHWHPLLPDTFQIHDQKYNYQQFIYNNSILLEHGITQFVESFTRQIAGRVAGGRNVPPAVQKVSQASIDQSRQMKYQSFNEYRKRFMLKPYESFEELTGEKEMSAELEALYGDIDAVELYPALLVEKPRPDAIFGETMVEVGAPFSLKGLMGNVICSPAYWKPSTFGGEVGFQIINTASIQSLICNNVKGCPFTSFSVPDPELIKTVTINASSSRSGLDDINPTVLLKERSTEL

[2] = Inhibition of 5LOX in bovine polymorphonuclear leucocytes assessed as leukotriene B4 formation; type: cell-based; settings: Bos taurus
[3] = molecular target: T2, Prostaglandin G/H synthase 1 (Bos taurus, UniProt O62664)
T2 sequence (O62664 whole entry): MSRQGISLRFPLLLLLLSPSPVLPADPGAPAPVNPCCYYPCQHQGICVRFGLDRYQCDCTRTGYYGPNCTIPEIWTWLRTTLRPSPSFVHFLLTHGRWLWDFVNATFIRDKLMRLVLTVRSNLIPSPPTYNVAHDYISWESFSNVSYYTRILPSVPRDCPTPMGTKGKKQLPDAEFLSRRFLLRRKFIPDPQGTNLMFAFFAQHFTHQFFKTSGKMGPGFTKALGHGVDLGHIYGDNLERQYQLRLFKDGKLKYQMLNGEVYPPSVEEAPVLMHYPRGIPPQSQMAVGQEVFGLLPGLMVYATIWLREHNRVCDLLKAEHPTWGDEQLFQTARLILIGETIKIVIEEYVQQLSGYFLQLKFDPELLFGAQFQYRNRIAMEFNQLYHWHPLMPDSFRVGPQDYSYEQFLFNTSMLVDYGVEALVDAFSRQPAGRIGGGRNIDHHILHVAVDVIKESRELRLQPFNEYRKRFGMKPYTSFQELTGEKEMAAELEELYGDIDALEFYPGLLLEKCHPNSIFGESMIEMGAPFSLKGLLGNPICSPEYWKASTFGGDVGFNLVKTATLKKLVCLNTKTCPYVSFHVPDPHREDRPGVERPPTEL
Description: Inhibition of COX1 in bovine platelets assessed as formation of 12-hydroxyheptadecatrienoic acid by HPLC

MONO-MAC-6 [4] = assay: Inhibition of TNF-alpha-stimulated adhesion of human MM6 cells to BAEC at 100 uM by static assay relative to control; type: functional
Bos taurus = species: Bos taurus; settings: 10 uM
Description: Inhibition of 5LOX in bovine polymorphonuclear leucocytes assessed as leukotriene B4 formation at 10 uM

MONO-MAC-6 [5] = assay: Inhibition of TNF-alpha-stimulated adhesion of human MM6 cells to BAEC at 30 uM by static assay relative to control; type: functional
Mus musculus [6] = assay: Effect on compound 48/80-induced leukocyte recruitment in BALB/c mouse peritonitis model assessed as reduction in polymorphonuclear leucocyte count in peritoneal cavity at 50 mg/kg, ip administered 1 hr before compound 48/80 challenge; type: functional; design: scale not given: the % may be the effect or the level left; settings: route intraperitoneal
Mus musculus [7] = assay: Reduction of CD11b protein expression on neutrophils in BALB/c mouse compound 48/80-induced peritonitis model at 50 mg/kg, ip administered 1 hr before compound 48/80 challenge; type: functional; design: scale not given: the % may be the effect or the level left; settings: route intraperitoneal
[8] = Cytotoxicity against BALB/c mouse polymorphonuclear leukocytes assessed as cell viability after 6 hrs by trypan blue exclusion assay; settings: read-out: Activity
MONO-MAC-6 [9] = assay: Inhibition of TNF-alpha-stimulated adhesion of human MM6 cells to BAEC at 40 uM by static assay relative to control; settings: MONO-MAC-6, read-out: INH

Row | Structure (SMILES) | IC50 [1] | IC50 [2] | IC50 [3] | further results
1 | Cc1ccc(-c2sncc2-c2ccc(Cl)cc2)cc1 | – | > 50 µM | 0.2 µM | –
2 | CS(=O)(=O)c1ccc(-c2sncc2-c2ccc(F)cc2)cc1 | 9 µM | 10 µM | 50 µM | –
3 | CS(=O)(=O)c1ccc(-c2c(-c3ccccc3)ssc2=O)cc1 | > 50 µM | > 50 µM | 8 µM | –
4 | CC(Cc1ccc(O)c(O)c1)C(C)Cc1ccc(O)c(O)c1 (stereo not drawn) [NORDIHYDROGUAIARETIC ACID] | > 50 µM | 1 µM | 50 µM | –
5 | Clc1ccc(-c2cnsc2-c2ccc(Cl)cc2)cc1 | 4 µM | – | 0.1 µM | –
6 | CS(=O)(=O)c1ccc(-c2ssc(=O)c2-c2ccccc2)cc1 | 1.1 µM | > 50 µM | 8 µM | inhibition (Bos taurus): 13%
7 | CS(=O)(=O)c1ccc(-c2c(-c3ccccc3)ssc2=S)cc1 | > 50 µM | > 50 µM | 20 µM | inhibition at 100 µM (MONO-MAC-6 [4]): 38%
8 | CS(=O)(=O)c1ccc(-c2ssc(=S)c2-c2ccccc2)cc1 | > 50 µM | 3 µM | – | inhibition at 100 µM (MONO-MAC-6 [4]): 9%
9 | Oc1ccc(-c2ssc(=S)c2-c2ccc(O)cc2)cc1 | > 50 µM | 6 µM | 20 µM | inhibition at 100 µM (MONO-MAC-6 [4]): 54%
10 | Cc1ccc(-c2cnsc2-c2ccc(Cl)cc2)cc1 | > 50 µM | 50 µM | 0.04 µM | –
11 | CC1(C)Cc2c(-c3ccccc3)c(-c3ccc(Cl)cc3)c(CC(=O)O)n2C1 [LICOFELONE] | – | 0.189 µM | 0.2 µM | inhibition at 30 µM (MONO-MAC-6 [5]): 56%
12 | O=C(O)Cc1ccccc1Nc1c(Cl)cccc1Cl [DICLOFENAC] | – | > 50 µM | – | –
13 | Oc1ccc(-c2cnsc2-c2ccc(O)cc2)cc1 | > 50 µM | > 50 µM | 1 µM | –
14 | Cc1ccc(-c2cc(C(F)(F)F)nn2-c2ccc(S(N)(=O)=O)cc2)cc1 [CELECOXIB] | – | – | – | inhibition at 40 µM (MONO-MAC-6 [9]): 85%

The next lines start with results.

Row | IC50 [1] | IC50 [2] | IC50 [3] | Structure (SMILES) | further results
15 | > 50 µM | > 50 µM | 0.2 µM | Cc1ccc(-c2c(-c3ccc(Cl)cc3)ssc2=O)cc1 | –
16 | > 50 µM | 20 µM | > 50 µM | CS(=O)(=O)c1ccc(-c2ssc(=S)c2-c2ccc(F)cc2)cc1 | inhibition at 100 µM (MONO-MAC-6 [4]): 85%
17 | 0.8 µM | 20 µM | 0.003 µM | COc1ccc(-c2cnsc2-c2ccc(OC)cc2)cc1 | –
18 | 20 µM | 10 µM | 0.03 µM | COc1ccc(-c2ssc(=S)c2-c2ccc(OC)cc2)cc1 | –
19 | > 50 µM | > 50 µM | 0.02 µM | Cc1ccc(-c2ssc(=O)c2-c2ccc(Cl)cc2)cc1 | –
20 | > 50 µM | 20 µM | 0.02 µM | COc1ccc(-c2sncc2-c2ccc(Cl)cc2)cc1 | –
21 | 9 µM | 9 µM | 7 µM | Cc1ccc(-c2c(-c3ccc(S(C)(=O)=O)cc3)ssc2=S)cc1 | inhibition at 100 µM (MONO-MAC-6 [4]): 71%; Activity (Mus musculus [6]): 49%; Activity (Mus musculus [7]): 40%; viability at 6 h [8]: 94%
22 | – | 50 µM | 0.07 µM | COc1ccc(-c2cnsc2-c2ccc(Cl)cc2)cc1 | –
23 | 50 µM | > 50 µM | 0.006 µM | Cc1ccc(-c2ssc(=S)c2-c2ccc(Cl)cc2)cc1 | –
24 | > 50 µM | 20 µM | 2 µM | Cc1ccc(-c2c(-c3ccc(Cl)cc3)ssc2=S)cc1 | –
25 | > 50 µM | > 50 µM | 0.6 µM | Cc1ccc(-c2ssc(=S)c2-c2ccc(S(C)(=O)=O)cc2)cc1 | inhibition at 100 µM (MONO-MAC-6 [4]): 26%
26 | 1 µM | > 50 µM | 0.0003 µM | COc1ccc(-c2ssc(=O)c2-c2ccc(OC)cc2)cc1 | –
27 | > 50 µM | 8 µM | 0.01 µM | COc1ccc(-c2sncc2-c2ccc(C)cc2)cc1 | –
